Results as given in patent US6589973B1, “Preparation of selective cyclooxygenase II inhibitors” (THEMIS Medicare Ltd., priority 2002, dated 2003).

How the values were obtained:
[1] = test system: Hot Plate Analgesometer in rats; assay: Central analgesic activity, hot plate (55° C) in rats; parameters: species or system Albino rats; settings: rat, in vivo
[2] = background statement; cited from earlier work

CC(C)=CCN1CCC2(C)c3cc(O)ccc3CC1C2C (centres unmarked) [Pentazocin]
% Increase in Reaction Time (IRT) [1]: 92.85% | Basal Reaction Time (BRT) [1]: 6.33 ± 0.41 s | Latent Reaction Time (LRT) [1]: 11.66 ± 1.60 s

Cc1onc(-c2ccccc2)c1-c1ccc(S(N)(=O)=O)cc1 [Valdecoxib]
solubility in water (in words) [2]: poorly soluble in water

CS(=O)(=O)c1ccc(C2=C(c3ccccc3)C(=O)OC2)cc1 [Rofecoxib]
solubility in water (in words) [2]: poorly soluble in water

COc1ccc(-c2cc(C(F)F)nn2-c2ccc(S(N)(=O)=O)cc2)cc1F [Deracoxib]
solubility in water (in words) [2]: poorly soluble in water

Itacoxib
solubility in water (in words) [2]: poorly soluble in water

Cc1ccc(-c2cc(C(F)(F)F)nn2-c2ccc(S(N)(=O)=O)cc2)cc1 [Celecoxib]
solubility in water (in words) [2]: poorly soluble in water
